Entries after “also recorded” stand apart in the source; their conditions may differ.

These results are taken from patent US8618063B2, “Method for treating a synucleinopathy” (The Board of Trustees of the University of Illinois, priority 2008, dated 2013).

In experiment [1] the test system is DIC phosphorylation. Kind of experiment: Labeling studies with MPP+ treated cortical neurons. Format: cell-based. As to the method: One mCi ^32P phosphate (ICN) was added per dish and incubated for 4 hours. Medium was discarded, cells homogenized in 1 ml of ROLB buffer and processed accordingly to standard methods (Morfini, et al. (2004) supra). Axoplasms were prepared as for video microscopy, but 1 mCi of γ-^32P-ATP was added. After 50 minutes incubation, axoplasms were homogenized in ROLB buffer. A 10 μl aliquot of lysate was precipitated with 15% TCA and radioactivity incorporated into protein determined by scintillation counting. Aliquots of equal counts were used for kinesin immunoprecipitation with 10 μg of 74.1 antibody and Protein G-agarose beads (Pierce). Immunoprecipitates were separated by SDS-PAGE, dried and exposed in a PHOSPHORIMAGER cassette, then scanned and quantified on a TYPHOON (Amersham/Molecular Dynamics).
(§1) MPTP/MPP+ is the best characterized example of toxin-induced Parkinson's disease. The effects of MPP+ on fast axonal transport were examined in axoplasm as was dynein phosphorylation in cells. […] Based on reports that MPP+ could activate caspase3 (Turmel, et al. (2001) Mov. Disord. 16:185-9) and that caspase3 can activate a PKC by proteolytic cleavage (Kaul, et al. (2003) Eur. J. Neurosci. 18:1387-401), the ability of a caspase3 inhibitor to block effects of MPP+ on fast axonal transport was evaluated. […] Further, perfusion with Caspase 3 affected retrograde transport in a manner similar to PKC and MPP+ (retrograde transport=1.462±0.016 μm/sec).

Experiment [2] deals with Ala30Pro mutant α-synuclein induced failure of neurotransmission. The experiment is described as follows: Squid giant synapse: prevention of Ala30Pro α-synuclein induced failure of neurotransmission. Format: cell-based. To be noted: co-injection / coperfusion with Ala30Pro α-synuclein. As to the method:
(§2) If they both work by activating PKC and increasing retrograde transport, they might affect availability of synaptic vesicle components in presynaptic terminals. Accordingly, either wild-type α-synuclein, Ala30Pro α-synuclein, or MPP+ were injected into the presynaptic side of the squid giant synapse as described for synaptic vesicles and synapsin (McGuinness, et al. (1989) J. Neurosci. 9:4138-4149; Llinas, et al. (1989) Proc. Nat. Acad. Sci. USA 86:5656-5660). This preparation has been used to evaluate the effects of reagents on presynaptic function by injecting, then stimulating the presynaptic side while recording intracellularly on both pre- and post-synaptic sides (Llinas, et al. (2004) Proc. Natl. Acad. Sci. USA 101:17855-60; Sugimori, et al. (1998) Neuroscience 86:39-51).

Experiment [3] has as its system α-synuclein mutant Ala30Pro effects on fast axonal transport. Kind of experiment: Isolated axoplasm: blocking of mutant α-synuclein (Ala30Pro) effects on fast axonal transport. It counts as cell-based, squid Loligo pealeii. Conditions: coperfused with α-synuclein mutant Ala30Pro, FIG. 3. As to the method:
(§3) Axoplasm was extruded from giant axons of the squid Loligo pealeii (Marine Biological Laboratory) according to established methods (Brady, et al. (1985) Cell Motil. 5(2):81-101). Axons were 400-600 μm in diameter and provided ≈5 μl of axoplasm per axon. Wild-type α-synuclein or α-synuclein with point mutations associated with familial Parkinson's disease (Ala30Pro or Ala53Thr), MPP+, enzymes or inhibitors were diluted into X/2 buffer (175 mM potassium aspartate, 65 mM taurine, 35 mM betaine, 25 mM glycine, 10 mM HEPES, 6.5 mM MgCl2, 5 mM EGTA, 1.5 mM CaCl2, 0.5 mM glucose, pH 7.2) supplemented with 2-5 mM ATP and 20 μl of this mix was added to perfusion chambers (Brady, et al. (1985) supra). Preparations were analyzed on a ZEISS AXIOMAT with a 100×, 1.3 na objective, and DIC optics. Hamamatsu Argus 20 and Model 2400 CCD camera were used for image processing and analysis. Organelle velocities were measured with a Photonics Microscopy C2117 video manipulator (Hamamatsu).
Accordingly, these inhibitors were coperfused with pathological α-synuclein mutant Ala30Pro and fast axonal transport was monitored. […] Similarly, the effects of α-synuclein mutant Ala30Pro could be blocked by a PKCmu peptide substrate (FIG. 3B) and an inhibitor of Src-Family Tyrosine Kinases (PP2) (FIG. 3C).

For experiment [4], the system named is MPP+ effects on fast axonal transport. Kind of experiment: Isolated axoplasm: blocking of MPP+ effects on fast axonal transport. Format: cell-based, squid Loligo pealeii. Conditions: for blocking of MPP+ effects on fast axonal transport: FIG. 5B. The protocol:
as §3, §1

For experiment [5], the system named is MPP+ induced failure of neurotransmission. The experiment is described as follows: Squid giant synapse: prevention of MPP+ induced failure of neurotransmission. It counts as cell-based. Conditions: co-injection with MPP+. The protocol: as §2
The test system of experiment [6] is Src/Fyn effects on fast axonal transport. Kind of experiment: Isolated axoplasm: blocking of Src/Fyn effects on fast axonal transport. It counts as cell-based, squid Loligo pealeii. To be noted: concentration not given. As to the method: as §3
Screening of nonreceptor tyrosine kinases included Src- and Abl-family members. […] Given that neither kinesin nor dynein are known to have tyrosine phosphorylations, the ability of a broad spectrum PKC inhibitor Gö6976 was included in the assay to block the action of Fyn. Gö6976 inhibition of PKC abolished actions of Src/Fyn on fast axonal transport (FIG. 1D), as did perfusion of the MARCKS peptide.

The target in experiment [7] is PKCγ (Homo sapiens, UniProt P05129). To be noted: cited from earlier work.
In experiment [8] the test system is phosphorylation of DIC. The experiment is described as follows: NGF/BDNF (Trk receptor) induced shift of dynein intermediate chain. To be noted: Trk neurotrophin receptors; Gö6976 at 100 nM. It counts as cell-based. The text has this:
Specifically, NGF and BDNF binding to Trk neurotrophin receptors caused a shift in the apparent molecular weight of dynein intermediate chain (DIC). To identify the kinase pathway involved in this change, more than 30 different kinase and phosphatase inhibitors were screened.

Experiment [9] concerns the target PKCα (Homo sapiens, UniProt P17252). Conditions: cited from earlier work.
Experiment [10] deals with PKCδ (Homo sapiens, UniProt Q05655). To be noted: cited from earlier work.
Experiment [11] addresses PKCβ (Homo sapiens, UniProt P05771). Conditions: cited from earlier work.
The target in experiment [12] is T1, PKCζ (Homo sapiens, UniProt Q05513).
T1 sequence (Q05513 1-592): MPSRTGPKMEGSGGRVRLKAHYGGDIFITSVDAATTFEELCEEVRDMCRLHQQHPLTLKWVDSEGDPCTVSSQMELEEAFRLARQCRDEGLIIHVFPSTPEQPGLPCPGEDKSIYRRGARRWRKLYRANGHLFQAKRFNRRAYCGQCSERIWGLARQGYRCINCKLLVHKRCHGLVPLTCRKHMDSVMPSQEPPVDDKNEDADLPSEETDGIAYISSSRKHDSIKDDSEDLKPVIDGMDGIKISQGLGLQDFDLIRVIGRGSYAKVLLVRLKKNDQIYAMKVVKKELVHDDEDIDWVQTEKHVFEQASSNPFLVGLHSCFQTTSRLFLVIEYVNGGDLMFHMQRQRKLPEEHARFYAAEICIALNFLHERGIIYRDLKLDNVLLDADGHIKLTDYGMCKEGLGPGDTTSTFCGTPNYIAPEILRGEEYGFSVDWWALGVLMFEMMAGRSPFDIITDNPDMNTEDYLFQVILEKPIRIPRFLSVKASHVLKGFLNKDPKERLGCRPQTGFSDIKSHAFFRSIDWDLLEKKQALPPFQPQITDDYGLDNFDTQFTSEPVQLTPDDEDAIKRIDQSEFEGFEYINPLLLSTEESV
To be noted: cited from earlier work.

The target of experiment [13] is T2, PKCμ (Homo sapiens, UniProt Q15139).
T2 sequence (Q15139 1-912): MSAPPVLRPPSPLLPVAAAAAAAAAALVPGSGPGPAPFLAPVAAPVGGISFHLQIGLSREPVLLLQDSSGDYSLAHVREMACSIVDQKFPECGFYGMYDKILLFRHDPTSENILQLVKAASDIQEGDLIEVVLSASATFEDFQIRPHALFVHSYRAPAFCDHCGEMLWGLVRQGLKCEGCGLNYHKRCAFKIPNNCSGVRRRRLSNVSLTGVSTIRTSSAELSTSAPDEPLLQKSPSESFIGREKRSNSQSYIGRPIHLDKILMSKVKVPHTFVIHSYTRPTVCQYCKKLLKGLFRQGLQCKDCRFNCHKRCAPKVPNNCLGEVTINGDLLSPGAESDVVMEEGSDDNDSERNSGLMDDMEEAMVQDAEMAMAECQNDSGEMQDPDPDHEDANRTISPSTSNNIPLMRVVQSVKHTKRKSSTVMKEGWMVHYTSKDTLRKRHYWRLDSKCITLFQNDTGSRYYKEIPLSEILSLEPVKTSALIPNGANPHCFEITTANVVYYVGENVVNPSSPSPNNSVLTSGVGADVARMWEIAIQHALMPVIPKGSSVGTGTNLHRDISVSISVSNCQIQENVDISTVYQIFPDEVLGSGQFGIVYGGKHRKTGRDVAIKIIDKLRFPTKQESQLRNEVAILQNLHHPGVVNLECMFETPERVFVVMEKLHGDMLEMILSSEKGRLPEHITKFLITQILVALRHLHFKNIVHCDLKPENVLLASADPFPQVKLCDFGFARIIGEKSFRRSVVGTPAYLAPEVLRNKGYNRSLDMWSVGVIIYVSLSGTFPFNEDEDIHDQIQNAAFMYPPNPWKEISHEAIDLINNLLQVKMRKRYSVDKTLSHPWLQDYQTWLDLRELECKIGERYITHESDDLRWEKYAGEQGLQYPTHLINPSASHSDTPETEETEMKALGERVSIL
Conditions: cited from earlier work.

Experiment [14] concerns fast axonal transport. Kind of experiment: Motility studies in isolated axoplasm: effect of perfused substance on fast axonal transport. Format: cell-based, squid Loligo pealeii. Conditions: substance perfused alone into isolated axoplasm. The protocol: as §3
The subject of experiment [15] is PKC. The experiment is described as follows: PKC activity in axoplasm. It counts as biochemical, squid. As to the method:
In the analysis disclosed herein, 3-4 axoplasms were triturated in KB buffer (10 mM HEPES, pH 7.4, 10 mM MgCl2, 1 mM DTT) and aliquoted. Individual reactions with corresponding in vitro translated AR constructs were started by adding radiolabeled ATP to 100 μM. Reactions were performed in 50 μl, incubated for 20 minutes at room temperature and stopped with 50 μl of 2× sample buffer. Lysates were separated by SDS-PAGE and analyzed by autoradiography.

Experiment [16] relates to neurotransmission at squid giant synapse. Kind of experiment: Squid giant synapse: neurotransmission after presynaptic injection. It counts as cell-based. To be noted: injected into presynaptic side of squid giant synapse; observed up to 90 minutes. The protocol:
as §2

Chain of PKCβ (P05771 whole entry, species assumed): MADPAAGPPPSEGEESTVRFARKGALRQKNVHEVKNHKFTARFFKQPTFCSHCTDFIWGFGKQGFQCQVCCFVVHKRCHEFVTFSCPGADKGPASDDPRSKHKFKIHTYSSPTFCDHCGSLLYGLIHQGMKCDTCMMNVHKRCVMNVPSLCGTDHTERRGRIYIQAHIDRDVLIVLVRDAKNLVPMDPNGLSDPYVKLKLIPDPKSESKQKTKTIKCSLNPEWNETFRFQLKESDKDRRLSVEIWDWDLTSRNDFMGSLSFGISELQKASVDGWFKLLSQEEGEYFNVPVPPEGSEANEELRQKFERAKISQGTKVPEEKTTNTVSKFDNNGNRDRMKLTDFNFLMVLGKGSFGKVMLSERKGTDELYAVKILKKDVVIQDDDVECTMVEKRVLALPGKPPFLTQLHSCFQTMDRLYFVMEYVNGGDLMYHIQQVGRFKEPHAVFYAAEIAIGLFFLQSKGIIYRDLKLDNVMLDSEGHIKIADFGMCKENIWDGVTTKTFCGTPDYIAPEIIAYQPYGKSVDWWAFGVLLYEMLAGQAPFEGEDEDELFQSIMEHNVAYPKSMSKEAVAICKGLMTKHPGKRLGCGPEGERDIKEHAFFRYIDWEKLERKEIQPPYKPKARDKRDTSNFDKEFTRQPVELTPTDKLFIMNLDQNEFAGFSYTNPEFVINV
Chain of PKCδ (Q05655 whole entry): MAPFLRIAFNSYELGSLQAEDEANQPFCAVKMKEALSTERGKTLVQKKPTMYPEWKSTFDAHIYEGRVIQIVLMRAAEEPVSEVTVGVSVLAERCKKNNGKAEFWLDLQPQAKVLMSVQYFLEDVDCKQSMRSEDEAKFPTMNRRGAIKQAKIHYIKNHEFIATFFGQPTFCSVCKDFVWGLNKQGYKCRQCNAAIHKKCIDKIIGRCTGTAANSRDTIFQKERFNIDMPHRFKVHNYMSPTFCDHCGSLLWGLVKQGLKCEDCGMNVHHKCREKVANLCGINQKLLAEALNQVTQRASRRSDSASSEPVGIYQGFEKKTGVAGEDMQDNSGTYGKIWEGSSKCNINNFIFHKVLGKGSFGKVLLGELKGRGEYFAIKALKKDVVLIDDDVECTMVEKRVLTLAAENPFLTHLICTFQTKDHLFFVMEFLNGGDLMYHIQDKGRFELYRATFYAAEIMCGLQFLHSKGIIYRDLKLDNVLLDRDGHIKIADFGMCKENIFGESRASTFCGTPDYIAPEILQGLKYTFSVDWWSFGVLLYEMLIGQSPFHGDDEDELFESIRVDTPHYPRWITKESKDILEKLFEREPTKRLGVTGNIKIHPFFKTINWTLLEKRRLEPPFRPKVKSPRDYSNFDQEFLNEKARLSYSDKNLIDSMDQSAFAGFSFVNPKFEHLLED

Take `COC(=O)CC[C@H](NC(=O)[C@H](CC(=O)OC)NC(=O)OCc1ccccc1)C(=O)N[C@H](C(=O)N[C@@H](CC(=O)OC)C(=O)CF)C(C)C` [Caspase3 Inhibitor II]: the “blocking of MPP+ induced increase in DIC phosphorylation” value in [1] (MPP+ treated cortical neurons) was “blocked”. The “prevention of Ala30Pro α-synuclein effect on neurotransmission” value in experiment [2] is on record as “not effective”. The “blocking of familial Parkinson's disease mutant α-synuclein (Ala30Pro) effects on fast axonal transport” value in [3] (listed as Caspase inhibitor) is reported as “ineffective”; in experiment [3] (listed as inhibitors of Caspase 3) it was “not effective”. The “blocking of MPP+ effects on fast axonal transport” value is listed as “completely block” in experiment [4] and “blocked” in experiment [4] (listed as caspase3 inhibitor II). In addition, the “anterograde transport rate in presence of MPP+ and inhibitor” value in experiment [4] (coperfused with MPP+) was 1.527±0.019 μm/sec. In addition, the “retrograde transport rate in presence of MPP+ and inhibitor” value in [4] (coperfused with MPP+) was 1.187±0.019 μm/sec. Besides, the “prevention of MPP+ induced failure of neurotransmission” value in experiment [5] is on record as “prevented”.

The term IC50 denotes the point on the concentration scale where inhibition reaches its midpoint. Regarding `COc1ccc2c(c1)c(C1=C(c3c[nH]c4ccccc34)C(=O)NC1=O)cn2CCCN(C)C` [Gö6983], the “prevention of Ala30Pro α-synuclein effect on neurotransmission” value in experiment [2] is on record as “not effective”. In addition, the “blocking of familial Parkinson's disease mutant α-synuclein (Ala30Pro) effects on fast axonal transport” value in experiment [3] was “ineffective; also recorded: not effective”. Also, in experiment [6], the “blocking of Src/Fyn actions on fast axonal transport” value was “did not block”. Also, the IC50 in experiment [7] is 6 nM; in [9], 7 nM; in experiment [10], 10 nM; in experiment [11], 7 nM; in [12], 60 nM; in experiment [13] it was 20000 nM. The “blocking of NGF/BDNF induced shift (phosphorylation) of DIC” value in experiment [8] is given as “failed to block”. Also, the “blocking of MPP+ effects on fast axonal transport” value in [4] was “blocked”.

On to `C[n+]1ccc(-c2ccccc2)cc1` [MPP+], for which the DIC phosphorylation entry in experiment [1] (cortical neurons treated with substance alone) is “increased DIC phosphorylation”. Further, the retrograde transport rate in experiment [14] (controls 1.2 μm/sec) came to 1.461±0.023 μm/sec. The same compound showed an anterograde transport rate in [14] (controls 1.6 μm/sec) of 1.272±0.0032 μm/sec. Further, the “PKC activity in axoplasm” value in experiment [15] was “activated PKC activity”. For the same compound, the “effect on neurotransmission, in words” value in experiment [16] is “failure of neurotransmission”.
